In one experiment the target is T1, WIP-WASp interaction (Homo sapiens, UniProt P42768, K230R/R34Q).
T1 construct: expressed in transfected cells
The experiment is described as follows: FRET analysis of WIP-WASp interaction in activated T-cells expressing CFP-WASp and YFP-WIP. Type of experiment: cell-based. Conditions: anti-CD3 stimulatory coverslips, fixed after 5 min; mean ± SE. As to the method:
FIG. 13A: Jurkat T cells stably expressing CFP-WASp and YFP-WIP were treated with WASp-binding SMC #6, SMC #30, SMC #33, SMC #34 or control. The cells were then plated on stimulatory coverslips (coated with an anti-CD3 antibody), and fixed after 5 min. Cells were imaged by confocal microscope, and FRET efficiency was measured by the donor-sensitized acceptor emission technology (see Experimental procedures for details).
FIG. 13B: graph summarizing the percentage FRET efficiency in cells plated on the stimulatory coverslips, with the indicated treatment. Data are from four independent experiments. Error bars represent the SE from the mean. P values were calculated by two-tailed Student's t-test.
Spreading assays were performed as previously described (Fried et al, 2014; Barda-Saad 2005). Briefly, T cells (2×10^6 cells/ml) were seeded on the bottom of chambered cover glasses (LabTek) that were pre-coated with anti-CD3 stimulatory monoclonal antibodies (10 μg/ml). The cells were incubated in imaging buffer [RPMI without phenol red containing 10% fetal calf serum (FCS) and 25 mM HEPES] at 37° C., 5% CO2, for the times indicated in the figure legends. Cells were fixed for 25 min with 4% paraformaldehyde in phosphate-buffered saline (PBS) and then were washed three times with PBS.
Double-color FRET was performed as described previously (Barda-Saad et al, 2005; Pauker, 2011, Pauker, 2012). […] The non-FRET components were calculated and removed with calibration curves derived from images of single-labeled cells containing CFP or YFP, as previously described (Barda-Saad et al, 2005). […] Bleed-through components were calculated as a function of the intensity of the expressed fluorescent proteins with data gathered from single-labeled cell lines. By using the intensity measured pixel by pixel through the different filter sets, as well as cross-talk elements that were isolated from the control, single-labeled cells, the measured FRET was corrected and the actual FRET efficiency at every pixel was determined. The relative FRET efficiency (FRETeff) was calculated on a pixel-by-pixel basis with the following equation: FRETeff=FRETcorr/(FRETcorr+donor)×100%, where FRETcorr is the pixel intensity in the corrected FRET image, and donor is the intensity of the corresponding pixel in the appropriate donor channel image. To increase the reliability of the calculations and to prevent low-level noise from distorting the calculated ratio, the inventors excluded pixels below 50 intensity units, as well as saturated pixels from the calculations, and set their intensities to zero. […] The FRET efficiency in the negative control system was measured and calculated in the same manner as that in the main experiment. […]

The test system of a further experiment is platelets. The experiment is described as follows: Platelet intra-cellular calcium concentration (Indo-1-AM). Conditions: TRAP-6 10 μM, vs solvent. Type of experiment: cell-based, human. As to the method:
Freshly-isolated human platelets were incubated with either control DMSO or the indicated WASp-binding SMCs, specifically, SMC #6 (FIG. 11A), SMC #30 (FIG. 11B), SMC #33 (FIG. 11C) and SMC #34 (FIG. 11D). Platelets were stimulated with TRAP-6 and calcium levels were measured by spectrofluorometer, as described in Experimental procedures. Data are representative of three independent experiments.
Cells were incubated with 5 μM Indo-1-acetoxymethylester (Indo-1-AM, Teflabs) in Tyrode's buffer at 37° C. for 20 min. The cells were washed once, resuspended in Tyrode's buffer containing 10 mM HEPES and maintained at room temperature for 20 min. The cells were incubated at 37° C. for 5 min before measurements and then stimulated with 10 μM TRAP-6. The Ca^2+ influx was measured by spectrofluorometer using the Synergy 4 Microplate Reader (Bio Tek).
However, following receptor-mediated stimulation, platelets dramatically elevate their intra-cellular calcium concentrations, which in turn serve as signaling cues that evoke platelet effector functions, including platelet spreading, adhesion and aggregation (Varga-Sabo et al, 2009). Therefore, the ability of WASp-protecting SMCs to upregulate intra-cellular calcium accumulation in activated platelets was next tested. Freshly-isolated human platelets were incubated with SMC #6, #30, #33 and #34 or with the solvent (negative control). Following incubation, platelets were stimulated with thrombin receptor activator peptide TRAP-6 (10 μM) and calcium levels were measured by spectrofluorometer, using Indo-1-AM-based calcium assay as described in Experimental procedures.

Data on 3 compounds can be found in US12150940B2, “WASp-protecting small molecules, compositions, methods and uses thereof in the treatment of innate and acquired immune-related disorders or conditions” (BAR ILAN UNIVERSITY, priority 2016, dated 2024).

T1 sequence (P42768 whole entry R34Q/K230R): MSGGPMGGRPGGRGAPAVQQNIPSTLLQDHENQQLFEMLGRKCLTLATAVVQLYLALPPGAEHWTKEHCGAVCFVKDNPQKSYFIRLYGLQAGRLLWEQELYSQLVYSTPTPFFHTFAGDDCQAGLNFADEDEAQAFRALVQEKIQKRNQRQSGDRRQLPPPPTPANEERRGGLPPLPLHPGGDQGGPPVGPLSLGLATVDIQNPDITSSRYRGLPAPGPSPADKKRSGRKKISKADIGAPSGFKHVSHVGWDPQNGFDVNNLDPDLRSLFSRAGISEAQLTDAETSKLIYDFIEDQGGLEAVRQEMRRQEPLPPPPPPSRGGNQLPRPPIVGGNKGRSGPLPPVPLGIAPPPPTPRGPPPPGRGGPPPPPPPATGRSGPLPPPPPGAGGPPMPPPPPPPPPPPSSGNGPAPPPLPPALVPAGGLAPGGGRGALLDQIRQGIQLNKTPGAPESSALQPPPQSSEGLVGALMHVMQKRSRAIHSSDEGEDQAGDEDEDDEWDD
T1 sequence (O43516 whole entry partner): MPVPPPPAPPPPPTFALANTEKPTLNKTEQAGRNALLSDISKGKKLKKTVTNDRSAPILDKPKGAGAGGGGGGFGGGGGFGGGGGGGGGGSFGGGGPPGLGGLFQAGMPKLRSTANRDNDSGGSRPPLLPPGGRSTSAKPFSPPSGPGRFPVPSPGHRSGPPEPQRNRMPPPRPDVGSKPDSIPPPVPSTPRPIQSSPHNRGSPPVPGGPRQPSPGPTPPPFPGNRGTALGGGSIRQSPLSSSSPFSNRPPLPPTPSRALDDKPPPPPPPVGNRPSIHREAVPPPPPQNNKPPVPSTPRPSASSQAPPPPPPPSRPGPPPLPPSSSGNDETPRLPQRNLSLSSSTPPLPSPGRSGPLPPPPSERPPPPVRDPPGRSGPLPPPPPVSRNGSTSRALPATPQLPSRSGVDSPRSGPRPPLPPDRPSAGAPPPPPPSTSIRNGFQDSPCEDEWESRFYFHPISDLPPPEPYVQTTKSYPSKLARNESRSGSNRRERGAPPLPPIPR

Regarding `CC1CCCC(C)N1C(=O)CSc1nnc(COc2cccc3cccnc23)o1` (stereo not drawn) [SMC #34, 1-(2,6-dimethylpiperidin-1-yl)-2-[[5-(quinolin-8-yloxymethyl)-1,3,4-oxadiazol-2-yl]sulfanyl]ethanone], on WIP-WASp interaction, the “average FRET efficiency” value worked out at 23.8±1.1%. The “intra-cellular calcium concentration in activated platelets” value (“intra-cellular calcium concentration” below) in the experiment on platelets is “dramatically enhanced”.

`Cc1ccccc1N(CC(=O)NCc1ccccc1)C(=O)CCC(=O)Nc1nccs1` [SMC #33, N′-[2-(benzylamino)-2-oxoethyl]-N′-(2-methylphenyl)-N-(1,3-thiazol-2-yl)butanediamide]: at WIP-WASp interaction, the “average FRET efficiency” value was found to be 21.4±1.4%. In the experiment with platelets, the “intra-cellular calcium concentration” value was “dramatically enhanced”.

In the case of `CC(=O)N[C@H]1C[C@@H](c2ccc3c(c2)nnn3C)O[C@@H](c2ccc(Cl)cc2)C1` [SMC #6, N-[(2R,4R,6S)-2-(4-chlorophenyl)-6-(1-methylbenzotriazol-5-yl)oxan-4-yl]acetamide], the “average FRET efficiency” value on WIP-WASp interaction amounted to 22.7±1.4%. Moreover, in the experiment on platelets, the “intra-cellular calcium concentration” value is on record as “dramatically enhanced”.
